From the NIST ThermoML archive (doi:10.1021/je060271a)

Settings: 283.15 K, Liquid, Vibrating tube method

CCCCC(=O)OCC(COC(=O)CCCC)(COC(=O)CCCC)COC(=O)CCCC [pentaerythritol tetrapentanoate]
Settings | mass density [kg/m3]
27222 kPa | 1042.2
27265 kPa | 1042.3
27300 kPa | 1042.3
27336 kPa | 1042.4
27379 kPa | 1042.4
27415 kPa | 1042.3
27450 kPa | 1042.4
27493 kPa | 1042.5
27528 kPa | 1042.4
27564 kPa | 1042.3
27608 kPa | 1042.5
27645 kPa | 1042.6
27681 kPa | 1042.5
27718 kPa | 1042.5
27762 kPa | 1042.5
27798 kPa | 1042.5
27842 kPa | 1042.6
27879 kPa | 1042.6
27916 kPa | 1042.6
27961 kPa | 1042.6
27998 kPa | 1042.8
28035 kPa | 1042.7
28074 kPa | 1042.8
28121 kPa | 1042.7
28158 kPa | 1042.7
28196 kPa | 1042.8
28241 kPa | 1042.8
28279 kPa | 1042.8
28316 kPa | 1042.8
28354 kPa | 1042.8
28400 kPa | 1042.8
28438 kPa | 1043
28477 kPa | 1043
28524 kPa | 1043
28563 kPa | 1043
28610 kPa | 1043
28652 kPa | 1043
28691 kPa | 1043.1
28730 kPa | 1043.1
28770 kPa | 1043
28816 kPa | 1043.1
28856 kPa | 1043.1
28896 kPa | 1043.1
28944 kPa | 1043.2
28984 kPa | 1043.2
29024 kPa | 1043.1
29072 kPa | 1043.3
29112 kPa | 1043.2
29153 kPa | 1043.3
29194 kPa | 1043.3
29244 kPa | 1043.3
29285 kPa | 1043.3
29333 kPa | 1043.4
29375 kPa | 1043.4
29416 kPa | 1043.4
29458 kPa | 1043.4
29508 kPa | 1043.4
29549 kPa | 1043.5
29592 kPa | 1043.4
29642 kPa | 1043.4
29685 kPa | 1043.6
29737 kPa | 1043.6
29782 kPa | 1043.6
29825 kPa | 1043.6
29869 kPa | 1043.7
29926 kPa | 1043.7
29972 kPa | 1043.7
30019 kPa | 1043.7
30074 kPa | 1043.7
30106 kPa | 1043.7
30144 kPa | 1043.9
30175 kPa | 1043.8
30205 kPa | 1043.8
30243 kPa | 1043.8
30275 kPa | 1043.9
30307 kPa | 1043.9
30340 kPa | 1044
30379 kPa | 1043.8
30413 kPa | 1043.9
30453 kPa | 1043.9
30485 kPa | 1044
30517 kPa | 1044
30549 kPa | 1044
30588 kPa | 1043.9
30621 kPa | 1044
30653 kPa | 1044.2
30692 kPa | 1044
30724 kPa | 1044.1
30757 kPa | 1044.1
30795 kPa | 1044.1
30828 kPa | 1044.1
30860 kPa | 1044.2
30899 kPa | 1044.1
30932 kPa | 1044.2
30965 kPa | 1044.2
31004 kPa | 1044.3
31038 kPa | 1044.2
31071 kPa | 1044.3
31110 kPa | 1044.2
31144 kPa | 1044.3
31178 kPa | 1044.4
31218 kPa | 1044.3
31252 kPa | 1044.4
31285 kPa | 1044.5
31325 kPa | 1044.3
31359 kPa | 1044.5
31393 kPa | 1044.4
31427 kPa | 1044.5
31468 kPa | 1044.5
31503 kPa | 1044.5
31544 kPa | 1044.5
31578 kPa | 1044.5
31613 kPa | 1044.6
31650 kPa | 1044.6
31685 kPa | 1044.5
31726 kPa | 1044.7
31762 kPa | 1044.6
31797 kPa | 1044.7
31839 kPa | 1044.7
31874 kPa | 1044.7
31909 kPa | 1044.7
31951 kPa | 1044.8
31987 kPa | 1044.8
32023 kPa | 1044.7
32066 kPa | 1044.8
32103 kPa | 1044.7
32141 kPa | 1044.8
32177 kPa | 1044.8
32214 kPa | 1044.9
32257 kPa | 1044.9
32294 kPa | 1044.9
32337 kPa | 1044.8
32373 kPa | 1045.1
32410 kPa | 1044.9
32447 kPa | 1044.9
32491 kPa | 1045
32528 kPa | 1045
32572 kPa | 1045
32609 kPa | 1045.1
32647 kPa | 1045.2
32691 kPa | 1045.2
32728 kPa | 1045.1
32766 kPa | 1045.2
32804 kPa | 1045.1
32850 kPa | 1045.1
32887 kPa | 1045.2
32925 kPa | 1045.2
32971 kPa | 1045.2
33008 kPa | 1045.2
33055 kPa | 1045.3
33093 kPa | 1045.2
33133 kPa | 1045.3
33172 kPa | 1045.3
33218 kPa | 1045.3
33258 kPa | 1045.4
33297 kPa | 1045.4
33344 kPa | 1045.4
33383 kPa | 1045.5
33430 kPa | 1045.5
33471 kPa | 1045.4
